The results in this text go back to ChEMBL document CHEMBL3734742, “Discovery of 2-aryloxy-4-amino-quinazoline derivatives as novel protease-activated receptor 2 (PAR2) antagonists” (Bioorg Med Chem, 2015).

In series [1] the target is Proteinase-activated receptor 2 (Homo sapiens) (UniProt P55085). Nature of the series: Antagonist activity at protease-activated receptor 2 (unknown origin) expressed in CHO-K1 cells assessed as inhibition of trypsin-induced calcium flux at 10 uM by FLIPR assay. Type of series: functional, cell-based. In general terms: Calcium assays in cells follow changes in intracellular calcium, usually with a dye or a luminescent sensor.

For series [2], the target named is T1, Proteinase-activated receptor 2 (Homo sapiens, UniProt P55085).
T1 sequence (P55085 whole entry): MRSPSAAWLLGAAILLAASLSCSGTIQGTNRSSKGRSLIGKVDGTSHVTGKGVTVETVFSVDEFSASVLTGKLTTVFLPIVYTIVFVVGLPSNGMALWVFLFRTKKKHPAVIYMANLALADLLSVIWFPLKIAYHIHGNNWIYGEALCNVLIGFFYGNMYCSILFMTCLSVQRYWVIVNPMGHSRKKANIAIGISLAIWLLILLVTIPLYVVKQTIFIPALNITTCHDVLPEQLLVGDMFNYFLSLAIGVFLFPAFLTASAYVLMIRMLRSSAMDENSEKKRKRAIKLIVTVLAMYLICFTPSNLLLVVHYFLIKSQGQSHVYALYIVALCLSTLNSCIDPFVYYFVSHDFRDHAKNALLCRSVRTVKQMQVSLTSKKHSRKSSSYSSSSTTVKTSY
Nature of the series: Antagonist activity at protease-activated receptor 2 (unknown origin) expressed in CHO-K1 cells assessed as inhibition of trypsin-induced calcium flux by FLIPR assay. Type of series: functional, cell-based.

Series [3] has as its target Proteinase-activated receptor 2 (Homo sapiens) (UniProt P55085). Briefly: Antagonist activity at trypsin-induced protease-activated receptor 2 activation (unknown origin) expressed in CHO-K1 cells assessed as receptor internalization at 30 uM after 1 hr by immuno-fluorescence assay (reference value: 28%). Format: cell-based. Also on record: scale not given: the % may be the effect or the level left.

In series [4] the target is T1, Proteinase-activated receptor 2. Briefly: Displacement of [3H]furoyl-LIGRL-NH2 from human protease-activated receptor 2 in NCTC-2544 cells. Type of series: cell-based. (In a radioligand displacement assay an active substance lowers the binding of a labelled ligand.)
The subject of series [5] is RAW264.7. Briefly: Antiinflammatory activity in mouse RAW264.7 cells assessed as inhibition of LPS-induced PGE2 production at 3 uM for 1 hr followed by stimulation with LPS for 24 hrs […]. Type of series: functional, cell-based.
In series [6] the test system is RAW264.7. Nature of the series: Antiinflammatory activity in mouse RAW264.7 cells assessed as inhibition of LPS-induced iNOS mRNA level compound pretreated for 1 hr followed by stimulation with LPS for 24 hrs by qRT-PCR analysis. Type of series: functional, cell-based.
The subject of series [7] is RAW264.7. Nature of the series: Inhibition of LPS-induced Erk phosphorylation in mouse RAW264.7 cells at 5 to 50 uM for 1 hr followed by stimulation with LPS for 5,10 or 15 mins by western blot analysis. Format: cell-based.
Series [8] relates to Mus musculus. Nature of the series: Antiinflammatory activity in C57BL/6 mouse assessed as reduction of LPS-induced sepsis at 30 mg/kg, po administered 1 hr before LPS challenge measured up to 60 hrs. Also on record: scale not given: the % may be the effect or the level left. Format: functional.
Series [9] concerns RAW264.7. Briefly: Antiinflammatory activity in mouse RAW264.7 cells assessed as inhibition of LPS-induced NO production at 5 to 50 uM for 1 hr followed by stimulation with LPS for 24 hrs by Griess reaction. Format: functional, cell-based.
For series [10], the system named is RAW264.7. Nature of the series: Cytotoxicity against mouse RAW264.7 cells assessed as cell viability at 3.125 to 200 uM after 24 hrs by MTT assay. To be noted: raw264.7, 24 h. Format: cell-based. On the technique in general: Tetrazolium dyes change colour on reduction, which living cells bring about.
Series [11] concerns the target MAP kinase p38 (Mus musculus) (UniProt P47811+O08911+Q9WUI1+Q9Z1B7). Nature of the series: Inhibition of LPS-induced p38 phosphorylation in mouse RAW264.7 cells at 5 to 50 uM for 1 hr followed by stimulation with LPS for 5,10 or 15 mins by western blot analysis. Type of series: cell-based.
For series [12], the target named is T2, Proteinase-activated receptor 2 (Mus musculus) (UniProt P55086).
T2 sequence (whole entry): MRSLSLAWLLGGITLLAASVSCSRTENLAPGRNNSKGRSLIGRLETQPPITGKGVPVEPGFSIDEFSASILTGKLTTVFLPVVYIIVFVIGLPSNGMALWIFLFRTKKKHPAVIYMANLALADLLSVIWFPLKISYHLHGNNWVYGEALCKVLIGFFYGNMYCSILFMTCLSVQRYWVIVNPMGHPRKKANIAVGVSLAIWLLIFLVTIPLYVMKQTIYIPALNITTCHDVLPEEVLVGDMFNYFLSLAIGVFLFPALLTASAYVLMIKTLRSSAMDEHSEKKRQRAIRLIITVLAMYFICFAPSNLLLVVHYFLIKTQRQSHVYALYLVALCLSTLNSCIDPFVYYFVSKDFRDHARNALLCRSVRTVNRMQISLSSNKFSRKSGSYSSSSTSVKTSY
Briefly: Antagonist activity at protease-activated receptor 2 in LPS-stimulated mouse RAW264.7 cells assessed as inhibition of AP-1 activation compound pretreated for 1 hr followed by stimulation with LPS for 8 hrs by luciferase reporter gene assay. Type of series: cell-based.

The test system of series [13] is RAW264.7. Nature of the series: Antiinflammatory activity in mouse RAW264.7 cells assessed as inhibition of LPS-induced COX2 expression at 5 to 50 uM for 1 hr followed by stimulation with LPS for 24 hrs by Western blot analysis. Type of series: functional, cell-based.
Series [14] concerns RAW264.7. Briefly: Antiinflammatory activity in mouse RAW264.7 cells assessed as inhibition of LPS-induced PGE2 production at 5 to 50 uM for 1 hr followed by stimulation with LPS for 24 hrs […]. Type of series: functional, cell-based.
Series [15] relates to RAW264.7. Briefly: Inhibition of LPS-induced JNK phosphorylation in mouse RAW264.7 cells at 5 to 50 uM for 1 hr followed by stimulation with LPS for 5,10 or 15 mins by western blot analysis. Format: cell-based.
Series [16] concerns RAW264.7. Nature of the series: Antiinflammatory activity in mouse RAW264.7 cells assessed as inhibition of LPS-induced IL-1beta expression compound pretreated for 1 hr followed by stimulation with LPS for 24 hrs by EIA. Format: functional, cell-based.
The subject of series [17] is Mus musculus. Briefly: Antiinflammatory activity in C57BL/6 mouse assessed as reduction of LPS-induced sepsis at 15 mg/kg, po administered 1 hr before LPS challenge measured up to 60 hrs. On the set-up: scale not given: the % may be the effect or the level left. Type of series: functional.
The subject of series [18] is RAW264.7. Briefly: Antiinflammatory activity in mouse RAW264.7 cells assessed as inhibition of LPS-induced IL-6 expression compound pretreated for 1 hr followed by stimulation with LPS for 24 hrs by EIA. Type of series: functional, cell-based.
The target in series [19] is T2, Proteinase-activated receptor 2 (Mus musculus). Briefly: Antagonist activity at protease-activated receptor 2 in LPS-stimulated mouse RAW264.7 cells assessed as inhibition of NF-kappaB activation compound pretreated for 1 hr followed by stimulation with LPS for 8 hrs by luciferase reporter gene assay. Type of series: cell-based.
Series [20] has as its system RAW264.7. Nature of the series: Antiinflammatory activity in mouse RAW264.7 cells assessed as inhibition of LPS-induced iNOS expression compound pretreated for 1 hr followed by stimulation with LPS for 24 hrs by Western blot analysis. Format: functional, cell-based.
Series [21] relates to RAW264.7. Briefly: Antiinflammatory activity in mouse RAW264.7 cells assessed as inhibition of LPS-induced COX2 mRNA expression at 5 to 50 uM for 1 hr followed by stimulation with LPS for 4 hrs QT-PCR analysis. Format: functional, cell-based.
For series [22], the system named is RAW264.7. Nature of the series: Antiinflammatory activity in mouse RAW264.7 cells assessed as inhibition of LPS-induced TNFalpha expression compound pretreated for 1 hr followed by stimulation with LPS for 24 hrs by EIA. Format: functional, cell-based.
Series [23] concerns Mus musculus. Briefly: Antiinflammatory activity in C57BL/6 mouse assessed as reduction of LPS-induced sepsis at 7.5 mg/kg, po administered 1 hr before LPS challenge measured up to 60 hrs. Type of series: functional. Also on record: scale not given: the % may be the effect or the level left.
The target in series [24] is T1, Proteinase-activated receptor 2. Briefly: Antagonist activity at protease-activated receptor 2 (unknown origin).

The structures appear in SMILES notation. Activity calls are given as the source filed them. The calls are words filed in the database; no cut-off is given here. A value given as a limit tells only on which side of the number the result lay.

Usually inhibition stands for how much of the control response was suppressed. For orientation: IC50 means the concentration that inhibits the measured activity by half. On to `CCCCCNc1nc(NCc2ccco2)c2cc(F)ccc2n1`, for which the inhibition in [1] was found to be 73.2%. In addition, the IC50 in series [2] was 690 nM.
In the case of `Clc1ccc(COc2nc(NCc3ccco3)c3ccccc3n2)c(Cl)c1`, the inhibition in [1] is 16.5%.
The same measure, in the same setting: the value for `COc1ccc2nc(Oc3cc(Cl)cc(Cl)c3)nc(NCc3ccco3)c2c1` was “inactive”; that for `Clc1cc(Cl)cc(COc2nc(NCc3ccco3)c3ccccc3n2)c1` was “inactive”.
For `Cc1ccc(CNc2nc(Oc3cc(Cl)cc(Cl)c3)nc3ccc(F)cc23)o1`, the Activity in series [3] amounted to 24%. Moreover, the inhibition in [1] was < 10%.
On to `COc1ccc(Oc2nc(NCc3occc3C)c3ccccc3n2)cc1`, for which, in series [1], the inhibition is 23.1%.
Regarding `Clc1ccc(Oc2nc(NCc3ccco3)c3ccccc3n2)cc1Cl`, the inhibition result in series [1] is “inactive”.
The Ki is a dissociation constant, usually derived from enzyme kinetics or from competition with a known ligand. For the compound `NCCCC[C@H](NC(=O)CNC(=O)Nc1ccc2c(c1)c(CN1CCCC1)cn2Cc1c(Cl)cccc1Cl)C(=O)N[C@H](Cc1ccccc1)C(=O)NC(c1ccccc1)c1ccccc1`, the Ki in series [4] was determined as 627 nM.
For `Cc1ccc(CNc2nc(Oc3ccc(Cl)c(Cl)c3)nc3ccc(F)cc23)o1`, in [1], the inhibition entry is “inactive”.
For the compound `CS(=O)(=O)Nc1ccc([N+](=O)[O-])cc1OC1CCCCC1`, the inhibition result in the series with RAW264.7 [5] was “Active”.
As for `Clc1ccc(Oc2nc(NCc3ccco3)c3cc(Cl)ccc3n2)c(Cl)c1`, the inhibition in series [1] is < 10%.
For the compound `COc1ccc2nc(Oc3ccc(Cl)cc3Cl)nc(NCc3occc3C)c2c1`, in series [1], the inhibition amounted to 33.1%. Also, in [2], the half-maximal inhibitory concentration (IC50) is > 10000 nM.
With `NCC[C@H](NC(=O)CNC(=O)Nc1ccc2c(c1)c(CN1CCCC1)cn2Cc1c(Cl)cccc1Cl)C(=O)N[C@H](Cc1ccccc1)C(=O)Nc1ccccc1`, the inhibitory constant (Ki) in series [4] came to 1940 nM.
Turning to `Cc1ccoc1CNc1nc(Oc2cc(Cl)cc(Cl)c2)nc2ccc(F)cc12`, the inhibition result in the series on RAW264.7 [6] is “Dose-dependent effect”; in series [12], “Dose-dependent effect”; in series [1] it was 47.7%; with RAW264.7 [16], “Dose-dependent effect”; with RAW264.7 [18], “Dose-dependent effect”; in [19] it was “Dose-dependent effect”. The inhibition result with RAW264.7 [20] and in the series on RAW264.7 [22] was “Dose-dependent effect” each time. For the same compound, the inhibition result in the series with RAW264.7 [7], in the series on RAW264.7 [9], with RAW264.7 [13], in the series on RAW264.7 [14] and in the series on RAW264.7 [21] was “Active” throughout. The Activity with Mus musculus [8] was 20%; in series [3] it was 12%; in the series with RAW264.7 [10], “Non-toxic”; in the series with Mus musculus [17] it was 60%; in the series with Mus musculus [23] it was 80%. Besides, the inhibition result (in series [11]; with RAW264.7 [15]) was “inactive” each time. In addition, in [2], the IC50 came to 2800 nM.
Consider `Cc1ccc(CNc2nc(Oc3ccc(Cl)cc3Cl)nc3ccc(Cl)cc23)o1`, for which, in series [1], the inhibition result is “inactive”.
On the same count and under the same terms, the value for `Cc1ccoc1CNc1nc(Oc2ccc(Cl)c(Cl)c2)nc2ccc(F)cc12` was < 10%; that for `Cc1ccoc1CNc1nc(Oc2cccc(Cl)c2)nc2ccccc12` was “inactive”.
Consider `COc1ccc2nc(Oc3cccc(Cl)c3)nc(NCc3ccco3)c2c1`, for which the inhibition result in series [1] was “inactive”.
In [24], `CC[C@H](C)[C@H](NC(=O)[C@H](CC1CCCCC1)NC(=O)c1ccno1)C(=O)N1CCC2(C=Cc3ccccc32)CC1` gave a concentration for half-maximal inhibition (IC50) of 2000 nM.
As for `Cc1ccoc1CNc1nc(Oc2ccc(Cl)cc2Cl)nc2ccccc12`, in series [1], the inhibition entry is “inactive”.
`COc1ccc2nc(Oc3ccc(Cl)c(Cl)c3)nc(NCc3ccco3)c2c1`: the inhibition entry in [1] is “inactive”.
